Source: ChEMBL document CHEMBL1201862, “PubChem BioAssay data set” (2004)
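Method: 48-hour compound exposure of cells in 96-well plates, five concentrations, linear interpolation of endpoints. GI50 marks 50% less growth.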 The source made the active and inactive calls. Rule as the data show it: active = GI50 up to about 1.1 µM and inactive = higher. Where a SMILES comes first, the peptide text is derived from it. [ ]: non-standard residue; d: D form. The star is where a group is joined. Phe(4-NO2) = N[CH](Cc1ccc([N+](=O)[O-])cc1)C(=O)O; Boc = CC(C)(C)OC(=O)*; OtBu = CC(C)(C)O*

Tests used:
Test in all cases: DTP human tumour cell line panel, 48 h
[1] = tested on: A498
[2] = tested on: A549
[3] = tested on: EKVX
[4] = tested on: IGROV-1
[5] = tested on: K562
[6] = tested on: LOX IMVI
[7] = tested on: M14
[8] = tested on: MOLT-4
[9] = tested on: NCI-H226
[10] = tested on: OVCAR-3
[11] = tested on: SF-539
[12] = tested on: SK-MEL-5
[13] = tested on: SK-OV-3
[14] = tested on: SNB-19
[15] = tested on: UACC-62
[16] = tested on: MCF7
[17] = tested on: MDA-MB-231
[18] = tested on: MDA-MB-435
[19] = tested on: T47D

Measured: GI50

COc1c(-c2ccccc2)nc2ccc(Oc3ccccc3)nn12
inactive: [1] > 41.4 µM | [2] > 57.5 µM | [3] > 100 µM | [4] > 93.8 µM | [5] 14.6 µM | [6] > 72.9 µM | [7] > 59.8 µM | [8] 14.1 µM | [9] 29.7 µM | [10] > 77.6 µM | [11] > 59.4 µM | [12] 33.2 µM | [13] > 100 µM | [14] > 84.5 µM | [15] > 69.7 µM

CNC1=Nc2ccccc2C(=S)N2CSC[C@@H]12
inactive: [1] > 100 µM | [2] > 100 µM | [5] > 100 µM | [7] > 100 µM | [16] > 100 µM | [17] > 100 µM | [18] > 100 µM | [8] > 100 µM | [10] > 100 µM | [11] > 100 µM | [12] > 100 µM | [13] > 100 µM | [14] > 100 µM | [19] > 100 µM | [15] > 100 µM

C=C=C(C)[Si](C)(C)C
inactive: [1] > 100 µM | [2] > 100 µM | [4] 71.1 µM | [5] > 100 µM | [6] > 100 µM | [7] > 100 µM | [16] > 100 µM | [17] > 100 µM | [18] > 100 µM | [8] > 100 µM | [9] > 100 µM | [10] > 100 µM | [11] > 100 µM | [12] > 100 µM | [13] > 100 µM | [14] > 100 µM | [19] > 100 µM | [15] > 100 µM

CCOC(=N)CC(=O)Nc1ccccc1
inactive: [1] > 46.5 µM | [2] > 46.5 µM | [3] > 100 µM | [4] > 46.5 µM | [5] 22.1 µM | [6] 47.5 µM | [7] > 46.5 µM | [8] > 31.6 µM | [9] > 31.6 µM | [10] > 31.6 µM | [11] > 46.5 µM | [12] > 46.5 µM | [13] > 100 µM | [14] > 100 µM | [15] > 100 µM

Cc1c(-c2ccccn2)ccc2ccccc12
inactive: [1] > 100 µM | [2] 69.5 µM | [3] 52.6 µM | [5] 71 µM | [6] 93.3 µM | [7] > 100 µM | [16] 88.7 µM | [17] 44.6 µM | [18] 48.5 µM | [8] 90.2 µM | [9] 43 µM | [10] 41.4 µM | [11] > 100 µM | [12] 35.7 µM | [13] > 100 µM | [14] > 100 µM | [19] 39.2 µM | [15] 47.1 µM

CC(=O)OC1C/C(C)=C/CCC(C)/C=C/C2(C)CCC(C(C)(C)O)C12 (stereo not drawn)
inactive: [1] > 100 µM | [2] 53 µM | [3] 63.2 µM | [4] 36.8 µM | [5] 36.7 µM | [6] 39.1 µM | [7] 52.6 µM | [8] 30.4 µM | [9] 45.1 µM | [10] 46.7 µM | [11] > 100 µM | [12] 47.6 µM | [13] > 100 µM | [14] > 100 µM | [15] 80.4 µM

NNC(=S)N/N=C(\CC1OC(=O)c2ccccc21)c1ccccc1O (stereo not drawn)
inactive: [1] 33.7 µM | [2] 64.3 µM | [3] 78.7 µM | [4] 38 µM | [5] 60.5 µM | [6] 17.6 µM | [7] 61.9 µM | [8] 23 µM | [9] 33.6 µM | [10] 37.5 µM | [11] 19.5 µM | [12] 42.3 µM | [13] > 100 µM | [14] 32.4 µM | [15] 35.5 µM

O=C1C=Cc2c(-c3ccccc3)oc3cccc1c23
inactive: [1] 15.4 µM | [2] 6.98 µM | [3] 3.19 µM | [4] 15.8 µM | [5] 17.2 µM | [6] 11.2 µM | [7] 30.5 µM | [8] 3.76 µM | [9] 11.3 µM | [10] 20.9 µM | [11] 12 µM | [12] 20.5 µM | [13] 24.4 µM | [14] 24 µM | [15] 11.2 µM

NC1=C(N2CCCCC2)C(=O)NC2=N/C(=C\c3ccccc3)C(=O)N21
inactive: [1] > 100 µM | [2] > 100 µM | [3] 92.9 µM | [4] > 100 µM | [5] 57.5 µM | [6] > 100 µM | [7] > 100 µM | [16] > 100 µM | [17] > 100 µM | [18] > 100 µM | [8] 62.1 µM | [9] > 100 µM | [11] > 100 µM | [12] > 100 µM | [13] > 100 µM | [14] > 100 µM | [19] > 100 µM

CC(=O)OC1CC2CCC1(C)C2(C)C (stereo not drawn)
inactive: [1] > 100 µM | [4] > 100 µM | [5] > 100 µM | [6] > 100 µM | [7] > 100 µM | [16] > 100 µM | [17] > 100 µM | [18] > 100 µM | [8] > 100 µM | [9] > 100 µM | [10] > 100 µM | [11] > 100 µM | [13] > 100 µM | [14] > 100 µM | [19] > 100 µM | [15] > 100 µM

Fc1cc(C2=Nn3c(COc4ccccc4Cl)nnc3S/C2=C\c2ccc(Cl)cc2)c(Cl)cc1Cl
inactive: [1] 14.2 µM | [3] 10.1 µM | [4] 3.8 µM | [5] 3.77 µM | [6] 3.92 µM | [7] 3.75 µM | [16] 5.14 µM | [17] 3.72 µM | [18] 2.26 µM | [8] 5.97 µM | [9] 20.6 µM | [10] 17.1 µM | [11] 5.6 µM | [12] 3.96 µM | [13] 19.3 µM | [19] 13.6 µM

CC(=O)NC(CCC(=O)OC(C)(C)C)C(=O)NC(CCC(=O)OC(C)(C)C)C(=O)NC(Cc1ccc([N+](=O)[O-])cc1)C(=O)NC(CCCCNC(=O)OC(C)(C)C)C(=O)NC(CCCCNC(=O)OC(C)(C)C)C(=O)NCC(=O)O (stereo not drawn) (Ac-E(OtBu)E(OtBu)[Phe(4-NO2)]K(Boc)K(Boc)G-OH; configuration not given here)
inactive: [2] > 100 µM | [3] > 100 µM | [4] > 100 µM | [5] > 100 µM | [6] > 100 µM | [7] 20.5 µM | [16] > 100 µM | [17] > 100 µM | [18] > 100 µM | [8] > 100 µM | [9] > 100 µM | [10] > 100 µM | [11] > 100 µM | [12] 7.35 µM | [13] > 100 µM | [14] > 100 µM | [19] > 100 µM | [15] > 100 µM
